From patent publication US9005677B2, “Autophagy enhancer for treatment of neurodegenerative diseases” (Macau University of Science and Technology, priority 2013, dated 2015)

Assays:
Format in all cases: cell-based, rat
[1] = system: GFP-LC3 puncta formation in PC12 cells; assay: Quantification of autophagy GFP-LC3 puncta; details: fluorescent microscopy
Description: Quantification of autophagy GFP-LC3 Puncta. GFP-LC3 puncta formation was quantified as described previously. In brief, cells grown on coverslips in a 6-well plate were fixed in 4% paraformaldehyde for 20 minutes at room temperature and then rinsed with PBS. Slides were mounted with FluorSave™ mounting media (Calbiochem, San Diego, Calif.) and examined by fluorescence microscopy. The number of GFP-positive cells with GFP-LC3 puncta formation was examined under the Nikon ECLIPSE 80i microscope. Representative images were captured with CCD digital camera Spot RT3™ (Diagnostic Instruments, Inc., Melville, N.Y.). To quantify autophagy, the percentage of cells with punctate GFP-LC3 fluorescence was calculated by counting the number of the cells with punctate GFP-LC3 fluorescence in GFP-positive cells. A minimum of 150 cells from 3 randomly selected fields was scored.

[2] = system: Doxycycline-inducible PC-12 cell lines transfected with mutant A53T α-synuclein; assay: Cell death by flow cytometry (Annexin V / propidium iodide) in PC-12 cells expressing mutant A53T α-synuclein; details: 50 μM, 24 h after doxycycline removal
Description: Flow cytometry analysis: Doxycycline-inducible PC-12 cell lines transfected with mutant A53T α-synuclein were induced with doxycycline (1 μg/mL) for 24 h and the expression of transgene was then switched off by the removal of doxycycline. Cells were then treated with Onjisaponin B (50 μM) for a further 24 h after doxycycline removal. The control group (Ctrl) contained cells without the addition of doxycycline, while the Dox group contained cells with the removal of doxycycline (1 μg/mL) after 24 h of induction but without treatment of Onjisaponin B. Cell death was then assessed by flow cytometry using Annexin V staining kit and Propidium iodide staining. Data from the bar chart represented the means±S.D. of three independent experiments. **p<0.01; *p<0.05. Flow cytometry was carried out using a FACSCalibur flow cytometer. Data acquisition and analysis were performed with CellQuest.

[3] = system: mutant huntingtin EGFP-HDQ74 in PC 12 cells; assay: Removal of mutant huntingtin, immunoblotting against EGFP; details: 24 hours treatment
Description: Removal of mutant huntingtin and mutant α-synuclein. PC 12 cells were transfected transiently with EGFP-HDQ74 plasmids for 24 hours using Lipofectamine Plus LTX reagent (Invitrogen) according to the manufacturer's protocol. The transfected cells were then treated with Onjisaponin B for 24 hours. The removal of mutant huntingtin, EGFP-HDQ74, was then quantitated by immunoblotting with antibody against EGFP. To measure the clearance of α-synuclein in cellular model, the overexpression of mutant A53T α-synuclein was first induced by the addition of doxycycline (1 μg/ml) (Sigma) for 24 hours, by using the doxycycline inducible PC 12 cell line transfected with A53T α-synuclein plasmid. The expression of mutant A53T α-synuclein was then switched off by removing doxycycline from medium. Cells were then incubated with Onjisaponin B for a further 24 hours. The clearance of mutant α-synuclein was then measured by immunoblotting with antibody against myc tag.

Q: COc1ccc(/C=C/C(=O)O[C@@H]2[C@H](O[C@@H]3O[C@@H](C)[C@H](O)[C@@H](O)[C@H]3O)[C@@H](O[C@@H]3O[C@@H](C)[C@H](O[C@@H]4OC[C@@H](O[C@@H]5O[C@H](CO)[C@H](O)[C@H](O)[C@H]5O)[C@H](O)[C@H]4O)[C@@H](O)[C@H]3O)[C@H](OC(=O)[C@]34CCC(C)(C)C[C@H]3C3=CC[C@@H]5[C@@]6(C)C[C@H](O)[C@H](O[C@@H]7O[C@H](CO)[C@@H](O)[C@H](O)[C@H]7O)[C@@](C)(C(=O)O)[C@@H]6CC[C@@]5(C)[C@]3(CO)CC4)O[C@@H]2C)cc1 [Onjisaponin B] was tested. Which GFP-LC3 puncta formation [1] did it give?
A: increased the formation of GFP-LC3 puncta formation in a dose dependent manner

Q: What about the “Toxicity in PC-12 cells expressing mutant A53T α-synuclein (cell death, flow cytometry)” value [2] of the same compound?
A: reduced toxicity

Q: What about the “Clearance of overexpressed EGFP-tagged mutant huntingtin with 74 CAG repeats” value [3] of the same compound?
A: enhanced the clearance
